Reference: ChEMBL document CHEMBL4130568, “Benzoxaboroles as Efficient Inhibitors of the β-Carbonic Anhydrases from Pathogenic Fungi: Activity and Modeling Study” (ACS Med Chem Lett, 2017)

Legend:
Carbonic anhydrase 2 [1] = target: T1, Carbonic anhydrase 2 (Cryptococcus neoformans, UniProt Q3I4V7); assay: Inhibition of Cryptococcus neoformans Can2 incubated for 15 mins prior to testing by stopped flow CO2 hydrase assay
T1 sequence (Q3I4V7 whole entry): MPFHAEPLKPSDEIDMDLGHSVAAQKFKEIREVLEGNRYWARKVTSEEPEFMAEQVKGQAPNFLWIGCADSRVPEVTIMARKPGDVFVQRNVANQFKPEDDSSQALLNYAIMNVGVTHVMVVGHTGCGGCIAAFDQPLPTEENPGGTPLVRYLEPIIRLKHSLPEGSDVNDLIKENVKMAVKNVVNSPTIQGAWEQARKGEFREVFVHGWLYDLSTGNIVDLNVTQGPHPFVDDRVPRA

Carbonic anhydrase = target: T2, Carbonic anhydrase (Candida glabrata CBS 138, UniProt Q6FTL6); assay: Inhibition of Candida glabrata Nce103 incubated for 15 mins prior to testing by stopped flow CO2 hydrase assay; design: species or system Nakaseomyces glabratus
T2 sequence (Q6FTL6 whole entry): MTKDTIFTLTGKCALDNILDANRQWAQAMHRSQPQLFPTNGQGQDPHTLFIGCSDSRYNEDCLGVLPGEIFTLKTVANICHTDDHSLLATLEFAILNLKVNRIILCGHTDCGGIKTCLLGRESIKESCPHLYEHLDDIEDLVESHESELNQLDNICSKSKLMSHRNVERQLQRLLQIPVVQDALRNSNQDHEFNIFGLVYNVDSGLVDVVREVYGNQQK

[2] = Inhibition of Malassezia globosa beta-carbonic anhydrase incubated for 15 mins prior to testing by stopped flow CO2 hydrase assay
Carbonic anhydrase 2 [3] = target: Carbonic anhydrase 2 (Homo sapiens, UniProt P00918); assay: Inhibition of human carbonic anhydrase-2 incubated for 15 mins prior to testing by stopped flow CO2 hydrase assay
Carbonic anhydrase 1 = Carbonic anhydrase 1 (Homo sapiens, UniProt P00915); assay: Inhibition of human carbonic anhydrase-1 incubated for 15 mins prior to testing by stopped flow CO2 hydrase assay
Sequence of Carbonic anhydrase 1 (P00915 whole entry): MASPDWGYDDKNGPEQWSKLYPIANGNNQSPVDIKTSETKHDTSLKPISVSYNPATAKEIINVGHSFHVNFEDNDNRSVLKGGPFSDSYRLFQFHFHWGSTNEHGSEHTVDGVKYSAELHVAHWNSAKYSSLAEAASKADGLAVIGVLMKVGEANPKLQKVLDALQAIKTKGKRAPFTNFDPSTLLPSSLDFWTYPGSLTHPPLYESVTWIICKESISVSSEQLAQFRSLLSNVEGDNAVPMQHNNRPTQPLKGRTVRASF

Row | SMILES | Ki (Carbonic anhydrase 2 [1]) | Ki (Carbonic anhydrase) | Ki [2] | Ki (Carbonic anhydrase 2 [3]) | Ki (Carbonic anhydrase 1)
1 | O=C(NCc1ccco1)Nc1ccc2c(c1)B(O)OC2 | 283 nM | 96 nM | 55600 nM | – | –
2 | OB1OCc2ccc(NC(=S)Nc3ccccc3)cc21 | 198 nM | 97 nM | 21300 nM | 1620 nM | 532 nM
3 | O=C(Nc1ccccc1)Nc1ccc2c(c1)B(O)OC2 | 81 nM | 86 nM | 63700 nM | 730 nM | 654 nM
4 | OB1OCc2ccc(NC(=S)Nc3ccc(C(F)(F)F)cc3)cc21 | 275 nM | 112 nM | 49800 nM | 1840 nM | 417 nM
5 | O=C(Nc1ccc(C(F)(F)F)cc1)Nc1ccc2c(c1)B(O)OC2 | 84 nM | 96 nM | 73600 nM | 456 nM | 487 nM
6 | OB1OCc2ccc(NC(=S)NCCc3ccccc3)cc21 | 676 nM | 467 nM | 22500 nM | – | –
7 | O=C(Nc1ccc2c(c1)B(O)OC2)Nc1c(Cl)cc(Cl)cc1Cl | 73 nM | 81 nM | 98600 nM | – | –
8 | CC(=O)c1ccc(NC(=O)Nc2ccc3c(c2)B(O)OC3)cc1 | 65 nM | 203 nM | 62200 nM | – | –
9 | O=C(Nc1ccc(F)cc1)Nc1ccc2c(c1)B(O)OC2 | 78 nM | 75 nM | 76200 nM | 480 nM | 235 nM
10 | O=[N+]([O-])c1ccc2c(c1)B(O)OC2 | 88 nM | 89 nM | 91300 nM | 504 nM | 6350 nM
11 | O=C(Nc1ccc(Cl)cc1)Nc1ccc2c(c1)B(O)OC2 | 92 nM | 81 nM | 77900 nM | – | –
12 | OB1OCc2ccccc21 [BENZOXABOROLE] | 174 nM | 260 nM | 109000 nM | – | –
14 | OB1OCc2ccc(NC(=S)NCc3ccco3)cc21 | 236 nM | 229 nM | 6100 nM | – | –
15 | Cc1cc(Cl)cc(CNC(=O)Nc2ccc3c(c2)B(O)OC3)c1 | 400 nM | 79 nM | 86800 nM | – | –
16 | OB1OCc2ccc(NC(=S)Nc3ccc(F)cc3)cc21 | 86 nM | 86 nM | 30100 nM | 1500 nM | 355 nM
17 | OB1OCc2ccc(NC(=S)Nc3ccc4ccccc4c3)cc21 | 573 nM | 339 nM | 30600 nM | – | –
18 | Cc1ccc(NC(=S)Nc2ccc3c(c2)B(O)OC3)cc1 | 181 nM | 89 nM | 24900 nM | – | –
19 | O=C(NCc1ccccc1)Nc1ccc2c(c1)B(O)OC2 | 602 nM | 201 nM | 58200 nM | 439 nM | 557 nM
20 | OB1OCc2cc(F)ccc21 [TAVABOROLE] | 89 nM | 72 nM | 99000 nM | 462 nM | 2020 nM
21 | COc1ccc(NC(=S)Nc2ccc3c(c2)B(O)OC3)cc1 | 89 nM | 86 nM | 28800 nM | – | –
22 | O=[N+]([O-])c1ccc(NC(=S)Nc2ccc3c(c2)B(O)OC3)cc1 | 79 nM | 96 nM | 8680 nM | > 10000 nM | 385 nM
23 | Nc1ccc2c(c1)B(O)OC2 | 93 nM | 244 nM | 44600 nM | 590 nM | 9430 nM
